Data set [1] is described as follows: Stability test: accelerated storage of formulations (CIPAC MT 46.3), mefenpyr-diethyl content by HPLC before and after aging. It counts as physicochemical. The note with it: stored at 54° C. for 1 week. As for the experimental part:
The stability of the mefenpyr-diethyl in these compositions was determined by aging samples in heated ovens having the same atmosphere therein, and then comparing the mefenpyr-diethyl content before and after aging to determine relative percentage of hydrolysis (RPH). RPH was calculated by the following equation: […]
Mefenpyr-diethyl content was determined by assaying the compositions with high-pressure liquid chromatography (HPLC) using reverse phase columns and eluants.
Samples prepared in Examples 4, 5 and 6 were stored at 54° C. for 1 week. The procedures are followed according to CIPAC MT 46.3. The concentration of mefenpyr-diethyl was measured at the end of each storage time by HPLC.

The nature of data set [2]: General stability of mefenpyr-diethyl forms (hydrolysis in water or on storage). It counts as physicochemical. The settings on record: dissolved or dispersed in water, or during storage exposed to moisture, result in words. The text has this: It will generally undergo significant hydrolysis when dissolved or dispersed in water. Furthermore, hydrolysis can occur during storage, particularly where the compound is exposed to moisture. As a result, the stability of mefenpyr-diethyl is of great concern with respect to providing the commercially available formulations. Therefore, there is a need to provide a novel form mefenpyr-diethyl with increased stability in formulations.
Accordingly, in an embodiment, the invention provides a novel crystalline form of mefenpyr-diethyl, termed “crystalline modification I”, and a process for its preparation, as well as its use in agrochemical compositions. […] Accordingly, in an embodiment, the invention also provides compositions for controlling undesirable plant growth, such as weeds, comprising the crystalline modification I of mefenpyr-diethyl with sulfonylurea herbicides, as a mixture with auxiliaries and carriers. The use of the crystalline modification I of mefenpyr-diethyl with sulfonylurea herbicides in the control of undesired plant growth and a method for the same are also provided by embodiments of the invention.

[3] abbreviates: Example 4 oil based suspension concentrate (OD) with iodosulfuron-methyl-sodium, 10 weight % mefenpyr-diethyl.
Where [4] appears, read: Example 5 soluble granules (SG) with mesosulfuron-methyl, 7 weight % mefenpyr-diethyl.
The mark [5] stands for this setting: Example 6 water dispersible granules (WG) with iodosulfuron-methyl-sodium, 7 weight % mefenpyr-diethyl.

On to `CCOC(=O)C1=NN(c2ccc(Cl)cc2Cl)C(C)(C(=O)OCC)C1` (racemic) [Amorphous mefenpyr-diethyl, diethyl (RS)-1-(2,4-dichlorophenyl)-5-methyl-2-pyrazoline-3,5-dicarboxylate], for which the figures for the “RPH % (relative percentage of hydrolysis)” value in data set [1] (setting [3]), in data set [1] (setting [4]) and in data set [1] (setting [5]) were 50%, 40% and 45%, respectively. In data set [2] (listed as mefenpyr-diethyl in amorphous state), the “stability (hydrolysis)” value is given as “highly unstable”.
In the case of `CCOC(=O)C1=NN(c2ccc(Cl)cc2Cl)C(C)(C(=O)OCC)C1` (racemic) [Mefenpyr-diethyl, crystalline modification I] [diethyl (RS)-1-(2,4-dichlorophenyl)-5-methyl-2-pyrazoline-3,5-dicarboxylate], the “RPH % (relative percentage of hydrolysis)” value in data set [1] (setting [3]), in data set [1] (setting [4]) and in data set [1] (setting [5]) was 0% throughout. Moreover, in data set [2], the “stability (hydrolysis)” value is on record as “increased stability relative to the amorphous form”.

For the origin of these results see patent publication US9809555B2, “Form of mefenpyr-diethyl, a process for its preparation and use of the same” (ROTAM AGROCHEM INTERNATIONAL COMPANY LIMITED, priority 2015, dated 2017).
